Reference: patent US20080206770A1, “SCREENING METHODS USED TO IDENTIFY COMPOUNDS THAT MODULATE SKIN STROMAL CELLS (FIBROBLASTS) ABILITY TO MODIFY FUNCTION OF EXTRACELLULAR MATRIX” (priority 2007, published 2008)

Tests used:
[1] = test system: dermal fibroblasts isolated from 17 individuals; assay: Real time RT-PCR of ECM components, nuclear hormone receptors and coregulators in fibroblasts from 17 individuals; assay type: cell-based, human
Experimental: Total RNA was extracted from cells using RNA aqueous kit (Ambion, USA). First-strand cDNAs were synthesized with Superscript III reverse transcriptase (Invitrogen, USA) and 1 μg of total RNA using oligo d(T) priming in a final reaction volume of 40 μL.
Levels of specific mRNAs were measured by real-time RT-PCR using Platinum SYBR Green qPCR SuperMix UDG (Invitrogen) according the protocol on the LightCycler 2.0 (Roche, US). The cycling program steps were: for one cycle 50° C. 2 min, for one cycle 95° C. 2 min and for 45 cycles: 95° C. 10 s, 60° C. 10 s, 72° C. 10 s. All samples were run in triplicates. Results were analyzed with the comparative Ct method (from Applied Biosystems manual; Livak and Schmittgen, 2001). Every sample was normalized for the housekeeping gene GAPDH. Transcript levels in the atRA and TGFb1 treated samples were compared to control samples.

[2] = test system: skin fibroblasts from 30 individuals; assay: Combined score of expression stimulation of 5 genes in fibroblast isolates (FIG. 1); assay type: cell-based, human; details: 24 hour treatment, atRA 10^-7 M, Matrixyl 1 μM, KappaElastin 1 μM
Experimental: (§1) Human dermal fibroblasts were grown in DMEM cell culture media containing 10% fetal bovine serum and 1% penicillin/streptomycin (Invitrogen). For all experiments, third-passage fibroblasts were used one day after reaching confluence. […] After 24 hour treatment RNA and protein was isolated and analyzed for the expression of components of ECM and transcriptional regulators.
(§2) Total RNA from various human tissues was purified using RNAwiz (Ambion, USA) and subjected to subsequent DNase I treatment using the DNA-Free kit (Ambion). Total RNA from cancer cells was purified by using 4PCRmini kit (Ambion). First-strand cDNAs were synthesized with Superscript III reverse transcriptase (Invitrogen, USA) and 5 μg of total RNA using oligo d(T) priming in a final reaction volume of 50 μL
The cDNA was amplified by PCR using the 2.5 U Hot-Firepol (Solis BioDyne, Estonia) and buffer Yellow (Naxo, Estonia). Reaction was performed in a 10 ul volume, using 0.5 ul cDNA as a template. Following primer sets were designed for this study:
The combined score of expression stimulation of 5 genes was calculated and blotted for each fibroblast isolate. […] This biological variation provides a good biological rational to use molecular diagnostics for matching cosmetics product and skin cells of specific individual (personalized cosmetics).

Human dermal fibroblasts [3] = assay: Western blot analysis of protein levels of ECM components after atRA treatment; assay type: cell-based; details: fold induction (+) or suppression (−) vs control; 10^-7 M, 24 hours
Experimental: as §1
Cells were lysed in Cell Disruption Buffer supplied with the Paris kit (Ambion) and protein concentration was determined using Bradford reagent (Pierce). Proteins were separated on 10% SDS-PAAG and transferred into the PVDF membrane (Biorad). […] Signal was detected using ECL reagent (Pierce).

Human dermal fibroblasts [4] = assay: RT-PCR analysis of mRNA levels of ECM components after atRA treatment; assay type: cell-based; details: fold induction (+) or suppression (−) vs control; 10^-7 M, 24 hours
Experimental: as §1, §2
The cDNA was amplified by PCR using the 2.5 U Hot-Firepol (Solis BioDyne, Estonia) and buffer Yellow (Naxo, Estonia). Reaction was performed in a 10 ul volume, using 0.5 ul cDNA as a template. Following primer sets (Table 21) were designed for this study:
The thermal cycling protocols were as follows: initial denaturation of template DNA and heat-activation of polymerase (15 min at 95° C.) followed by 40 cycles denaturation (30 sec at 95° C.) annealing (58° C.) and extension (90 sec). PCR products were analysed on a 1% agarose gel. For sequencing, PCR reactions were purified using PCR purification kit (Qiagen, USA) and subcloned into TOPO TA cloning vector. Fragments were sequenced at GATC Biotech sequencing services (Germany).

[5] = fibroblasts from 17 individuals, 1 μM, 24 hours

Structure (SMILES): CC1=C(/C=C/C(C)=C/C=C/C(C)=C/C(=O)O)C(C)(C)CCC1 [all trans retinoic acid, all-trans retinoic acid]
- variation between individuals of effect on expression of nuclear hormone receptors, compared with co-regulators ([1]; cells treated with atRA, 17 individuals): less variation
- CBP expression in RA treatment compared to control, from-to between individuals [1, 5]: (from −2.15 to 3.17) fold
- COL1A1 expression in RA treatment compared to control, from-to between individuals [1, 5]: (from −6.25 to 3.25) fold
- COL1A2 expression in RA treatment compared to control, from-to between individuals [1, 5]: (from −3.13 to 1.83) fold
- COL3A1 expression in RA treatment compared to control, from-to between individuals [1, 5]: (from −2.28 to 2.89) fold
- COL4A1 expression in RA treatment compared to control, from-to between individuals [1, 5]: (from −3.97 to 2.18) fold
- COL5A1 expression in RA treatment compared to control, from-to between individuals [1, 5]: (from −4.76 to 2.39) fold
- COL5A2 expression in RA treatment compared to control, from-to between individuals [1, 5]: (from −1.41 to 2.94) fold
- CTGF expression in RA treatment compared to control, from-to between individuals [1, 5]: (from −2.4 to 2.64) fold
- ELN expression in RA treatment compared to control, from-to between individuals [1, 5]: (from −2.44 to 3.02) fold
- FN 1 transcr.v.1 expression in RA treatment compared to control, from-to between individuals [1, 5]: (from −3.63 to 1.14) fold
- Individual variation of gene expression in RA treatment: CBP [1, 5]: 5.32 fold
- Individual variation of gene expression in RA treatment: COL1A1 [1, 5]: 9.5 fold
- Individual variation of gene expression in RA treatment: COL1A2 [1, 5]: 4.96 fold
- Individual variation of gene expression in RA treatment: COL3A1 [1, 5]: 5.17 fold
- Individual variation of gene expression in RA treatment: COL4A1 [1, 5]: 6.15 fold
- Individual variation of gene expression in RA treatment: COL4A4 [1, 5]: 1.63 fold
- Individual variation of gene expression in RA treatment: COL5A1 [1, 5]: 7.15 fold
- Individual variation of gene expression in RA treatment: COL5A2 [1, 5]: 4.35 fold
- Individual variation of gene expression in RA treatment: CTGF [1, 5]: 5.04 fold
- Individual variation of gene expression in RA treatment: ELN [1, 5]: 5.46 fold
- Individual variation of gene expression in RA treatment: FN 1 transcr.v.1 [1, 5]: 4.77 fold
- Individual variation of gene expression in RA treatment: MMP1, collagenase 1 [1, 5]: 7.09 fold
- Individual variation of gene expression in RA treatment: MMP2 gelatinase [1, 5]: 5.05 fold
- Individual variation of gene expression in RA treatment: MMP3 stromelysin [1, 5]: 6.4 fold
- Individual variation of gene expression in RA treatment: MMP7 [1, 5]: 16.46 fold
- Individual variation of gene expression in RA treatment: MMP10, stromelysin 2 [1, 5]: 12 fold
- Individual variation of gene expression in RA treatment: MMP19 [1, 5]: 3.41 fold
- Individual variation of gene expression in RA treatment: NCOA1 [1, 5]: 5.68 fold
- Individual variation of gene expression in RA treatment: NCOA2 [1, 5]: 5.63 fold
- Individual variation of gene expression in RA treatment: NCOA3 [1, 5]: 6.16 fold
- Individual variation of gene expression in RA treatment: NCOA5 [1, 5]: 3.1 fold
- Individual variation of gene expression in RA treatment: NCOA6 [1, 5]: 3.43 fold
- Individual variation of gene expression in RA treatment: NCOA7 [1, 5]: 4.44 fold
- Individual variation of gene expression in RA treatment: NCOR1 [1, 5]: 4.2 fold
- Individual variation of gene expression in RA treatment: PC4 [1, 5]: 3.57 fold
- Individual variation of gene expression in RA treatment: PPARG [1, 5]: 4.59 fold
- Individual variation of gene expression in RA treatment: RARA [1, 5]: 4.44 fold
- Individual variation of gene expression in RA treatment: RARG [1, 5]: 3.37 fold
- Individual variation of gene expression in RA treatment: RXRA [1, 5]: 4.34 fold
- Individual variation of gene expression in RA treatment: RXRG [1, 5]: 4.01 fold
- Individual variation of gene expression in RA treatment: TIMP1 [1, 5]: 4.21 fold
- MMP1, collagenase 1 expression in RA treatment compared to control, from-to between individuals [1, 5]: (from −3.38 to 3.71) fold
- MMP2 gelatinase expression in RA treatment compared to control, from-to between individuals [1, 5]: (from −2.7 to 2.35) fold
- MMP3 stromelysin expression in RA treatment compared to control, from-to between individuals [1, 5]: (from −3.73 to 2.67) fold
- MMP7 expression in RA treatment compared to control, from-to between individuals [1, 5]: (from −14.77 to 1.69) fold
- MMP10, stromelysin 2 expression in RA treatment compared to control, from-to between individuals [1, 5]: (from −5.15 to 6.84) fold
- MMP19 expression in RA treatment compared to control, from-to between individuals [1, 5]: (from −2.4 to 1.01) fold
- NCOA1 expression in RA treatment compared to control, from-to between individuals [1, 5]: (from −2.99 to 2.69) fold
- NCOA2 expression in RA treatment compared to control, from-to between individuals [1, 5]: (from −1.95 to 3.68) fold
- NCOA3 expression in RA treatment compared to control, from-to between individuals [1, 5]: (from −2.02 to 4.14) fold
- NCOA5 expression in RA treatment compared to control, from-to between individuals [1, 5]: (from −1.25 to 1.85) fold
- NCOA6 expression in RA treatment compared to control, from-to between individuals [1, 5]: (from −1.44 to 1.99) fold
- NCOA7 expression in RA treatment compared to control, from-to between individuals [1, 5]: (from −1.85 to 2.59) fold
- NCOR1 expression in RA treatment compared to control, from-to between individuals [1, 5]: (from −2.23 to 1.97) fold
- PC4 expression in RA treatment compared to control, from-to between individuals [1, 5]: (from −1.8 to 1.77) fold
- PPARG expression in RA treatment compared to control, from-to between individuals [1, 5]: (from −1.64 to 2.95) fold
- RARA expression in RA treatment compared to control, from-to between individuals [1, 5]: (from −1.53 to 2.91) fold
- RARG expression in RA treatment compared to control, from-to between individuals [1, 5]: (from −1.45 to 1.92) fold
- RXRA expression in RA treatment compared to control, from-to between individuals [1, 5]: (from −1.75 to 2.59) fold
- RXRG expression in RA treatment compared to control, from-to between individuals [1, 5]: (from −2.02 to 1.99) fold
- induced or repressed expression of different genes (Col1A1, Col4A1, Elastin, MMP1, MMP7) ([1]; in different fibroblast isolates, 17 individuals, 1 μM, 24 hours): up to 8 fold
- variation between individual fibroblasts of expression of coactivators NCOA1, NCOA2 and NCOA3 ([1]; in response to atRA, 17 individuals): highest variation
- combined score of expression stimulation of 5 genes (COL1A1, COL2A1, elastin, proteoglycan, TIMP1) per fibroblast isolate [2]: 3 groups of fibroblasts that have different response
- COL1A1 protein level (Human dermal fibroblasts [3]): 2 fold
- COL1A2 protein level (Human dermal fibroblasts [3]): 2 fold
- COL2A1 protein level (Human dermal fibroblasts [3]): 3 fold
- COL3A1 protein level (Human dermal fibroblasts [3]): 2 fold
- COL4A1 protein level (Human dermal fibroblasts [3]): 1 fold
- COL4A2 protein level (Human dermal fibroblasts [3]): 1 fold
- COL4A3 protein level (Human dermal fibroblasts [3]): 1 fold
- COL4A4 protein level (Human dermal fibroblasts [3]): 1 fold
- COL5A1 protein level (Human dermal fibroblasts [3]): 1 fold
- Elastin ELN protein level (Human dermal fibroblasts [3]): 2 fold
- Lysyl oxidase protein level (Human dermal fibroblasts [3]): 3 fold
- MMP2 protein level (Human dermal fibroblasts [3]): 2 fold
- MMP-11 protein level (Human dermal fibroblasts [3]): 3 fold
- decorin protein level (Human dermal fibroblasts [3]): 4 fold
- COL1A1 mRNA level (Human dermal fibroblasts [4]): 2 fold
- COL1A2 mRNA level (Human dermal fibroblasts [4]): 4 fold
- COL2A1 mRNA level (Human dermal fibroblasts [4]): 5 fold
- COL3A1 mRNA level (Human dermal fibroblasts [4]): 2 fold
- COL4A1 mRNA level (Human dermal fibroblasts [4]): 1 fold
- COL4A2 mRNA level (Human dermal fibroblasts [4]): 3 fold
- COL4A3 mRNA level (Human dermal fibroblasts [4]): 2 fold
- COL4A4 mRNA level (Human dermal fibroblasts [4]): 1 fold
- COL7A1 mRNA level (Human dermal fibroblasts [4]): 2 fold
- Elastin ELN mRNA level (Human dermal fibroblasts [4]): 4 fold
- FBLN5 mRNA level (Human dermal fibroblasts [4]): 2 fold
- FN 1 mRNA level (Human dermal fibroblasts [4]): 1 fold
- Fibrillin-1 mRNA level (Human dermal fibroblasts [4]): 1 fold
- Fibrillin-2 mRNA level (Human dermal fibroblasts [4]): 1 fold
- Fibulin-2 mRNA level (Human dermal fibroblasts [4]): 3 fold
- Lumican mRNA level (Human dermal fibroblasts [4]): 1 fold
- Lysyl oxidase mRNA level (Human dermal fibroblasts [4]): 8 fold
- MMP2 mRNA level (Human dermal fibroblasts [4]): 2 fold
- MMP7 mRNA level (Human dermal fibroblasts [4]): 2 fold
- MMP9 mRNA level (Human dermal fibroblasts [4]): 2 fold
- MMP12 mRNA level (Human dermal fibroblasts [4]): 2 fold
- MMP13 mRNA level (Human dermal fibroblasts [4]): 5 fold
- MMP19 mRNA level (Human dermal fibroblasts [4]): 1 fold
- MMP20 mRNA level (Human dermal fibroblasts [4]): 1 fold
- MMP-11 mRNA level (Human dermal fibroblasts [4]): 7 fold
- TIMP1 mRNA level (Human dermal fibroblasts [4]): 2 fold
- TIMP3 mRNA level (Human dermal fibroblasts [4]): 3 fold
- TIMP4 mRNA level (Human dermal fibroblasts [4]): 1 fold
- aggrecan mRNA level (Human dermal fibroblasts [4]): 1 fold
- decorin mRNA level (Human dermal fibroblasts [4]): 6 fold
- fibromodulin mRNA level (Human dermal fibroblasts [4]): 1 fold
